Data taken from patent publication US20260152487A1 (Sitryx Therapeutics Limited, priority 2021, published 2026).

Molecular target: T1, recombinant human PKM2 (Homo sapiens, UniProt P14618)
T1 construct: His (N); purchased R&D Systems
Test: Human PKM2 activation assay (Kinase-Glo Plus luminescent detection of generated ATP)
Type: biochemical
Settings: for Emax: percentage activation normalised to DMSO vehicle (LOW) and 5 μM TEPP-46 (HIGH), read-out: hPKM2 Emax; for EC50: recombinant human PKM2 activation, 4-parameter logistic fit, read-out: hPKM2 EC50
Outline: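 Luminescent ATP detection (Kinase-Glo Plus, 15 min, 26 °C) followed a 60 min, 26 °C shaken reaction of compound with […] His-tagged human PKM2, PEP and ADP in imidazole/KCl/MgCl2 buffer with Tween20 and BSA, pH 7.2.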

T1 sequence (P14618 2-531 limits assumed): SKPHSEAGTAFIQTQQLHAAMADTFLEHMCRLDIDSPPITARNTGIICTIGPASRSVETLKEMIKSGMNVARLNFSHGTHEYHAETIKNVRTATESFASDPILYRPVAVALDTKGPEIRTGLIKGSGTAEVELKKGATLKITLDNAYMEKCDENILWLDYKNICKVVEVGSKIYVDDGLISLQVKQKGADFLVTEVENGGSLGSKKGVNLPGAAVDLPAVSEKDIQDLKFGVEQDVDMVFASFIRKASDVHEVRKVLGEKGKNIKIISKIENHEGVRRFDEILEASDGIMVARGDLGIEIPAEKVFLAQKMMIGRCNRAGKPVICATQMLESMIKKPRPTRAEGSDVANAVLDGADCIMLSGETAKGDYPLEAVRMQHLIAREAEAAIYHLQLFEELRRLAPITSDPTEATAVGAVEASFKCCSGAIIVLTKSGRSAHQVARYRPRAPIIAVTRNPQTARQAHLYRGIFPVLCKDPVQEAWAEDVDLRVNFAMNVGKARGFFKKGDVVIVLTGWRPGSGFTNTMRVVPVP

| SMILES | Emax [%] | EC50 [nM] |
| --- | --- | --- |
| COc1ccc(Cn2ncc3cc(S(=O)(=O)c4cccc5[nH]ncc45)ccc3c2=O)cn1 [Example 123, 6-((1H-indazol-4-yl)sulfonyl)-2-((6-methoxypyridin-3-yl)methyl)phthalazin-1(2H)-one] | 74.4 | 123 |
| COc1cccc(Cn2ncc3cc(S(=O)(=O)c4cn[nH]c4)ccc3c2=O)n1 [Example 294, 6-((1H-pyrazol-4-yl)sulfonyl)-2-((6-methoxypyridin-2-yl)methyl)phthalazin-1(2H)-one] | 104 | 150 |
| COc1ccc(S(=N)(=O)c2ccc3c(=O)n(Cc4ccc(OC)nc4)ncc3c2)cc1 (racemic) [Example 137, 6-(4-methoxyphenylsulfonimidoyl)-2-((6-methoxypyridin-3-yl)methyl)phthalazin-1(2H)-one] | 81.9 | 129 |
| C[C@@H](O)c1cccc(Cn2ncc3cc(S(=O)(=O)c4cnn(C)c4)ccc3c2=O)n1 (single isomer, unassigned) [Example 279] | 88.7 | 277 |
| COc1ccc(Cn2ncc3cc(S(=O)(=O)c4cnn(C)c4C)ccc3c2=O)cn1 [Example 190, 6-(1,5-dimethyl-1H-pyrazol-4-ylsulfonyl)-2-((6-methoxypyridin-3-yl)methyl)phthalazin-1(2H)-one] | 102 | 225 |
| Cc1ccc(Cn2ncc3cc(S(=O)(=O)c4cn[nH]c4)ccc3c2=O)cn1 [Example 295, 6-((1H-pyrazol-4-yl)sulfonyl)-2-((6-methylpyridin-3-yl)methyl)phthalazin-1(2H)-one] | 104 | 456 |
| Cc1nc(Cn2ncc3cc(S(=O)(=O)c4cn[nH]c4)ccc3c2=O)c(F)cc1F [Example 342] | 104 | 84.4 |
| Cn1ccc2cc(S(=O)(=O)c3ccc4c(=O)n(Cc5cc[nH]n5)ncc4c3)ccc21 [Example 231, 2-((1H-pyrazol-3-yl)methyl)-6-((1-methyl-1H-indol-5-yl)sulfonyl)phthalazin-1(2H)-one] | 111 | 93.5 |
| COc1ccc(Cn2ncc3cc([S@](=N)(=O)c4ccc(OC(F)F)cc4)ccc3c2=O)cn1 (single isomer, unassigned) [Example 135] | 79.9 | 111 |
| Cc1cc(Cn2ncc3cc(S(=O)(=O)c4cnn(C(F)F)c4)ccc3c2=O)n[nH]1 [Example 315] | 108 | 241 |
| O=c1c2ccc(S(=O)(=O)c3ccc4sccc4c3)cc2cnn1Cc1cc[nH]n1 [Example 227, 2-((1H-pyrazol-3-yl)methyl)-6-(benzo[b]thiophen-5-ylsulfonyl)phthalazin-1(2H)-one] | 115 | 35.4 |
| Cn1cc(S(=O)(=O)c2ccc3c(=O)n(Cc4cc(Cl)[nH]n4)ncc3c2)cn1 [Example 317] | 109 | 169 |
| COc1ccc(Cn2ncc3cc(S(=O)(=O)c4cccc(F)c4)ccc3c2=O)cn1 [Example 157, 6-((3-fluorophenyl)sulfonyl)-2-((6-methoxypyridin-3-yl)methyl)phthalazin-1(2H)-one] | 87.5 | 123 |
| COc1ccc(Cn2ncc3cc(S(=O)(=O)c4ccc(OC)nc4)ccc3c2=O)cn1 [Example 175, 2-((6-methoxypyridin-3-yl)methyl)-6-(6-methoxypyridin-3-ylsulfonyl)phthalazin-1(2H)-one] | 97.2 | 71.2 |
| Cn1ccc(S(=O)(=O)c2ccc3c(=O)n(Cc4ccccc4C(N)=O)ncc3c2)n1 [Example 210, 2-((6-(1-methyl-1H-pyrazol-3-ylsulfonyl)-1-oxophthalazin-2(1H)-yl)methyl)benzamide] | 87.4 | 318 |
| COc1ccc(Cn2ncc3cc([S@](=N)(=O)c4ccccc4)ccc3c2=O)cn1 (single isomer, unassigned) [Example 132] | 95.1 | 289 |
| O=c1c2ccc(S(=O)(=O)c3ccc4ccoc4c3)cc2cnn1Cc1cc[nH]n1 [Example 222, 2-((1H-pyrazol-3-yl)methyl)-6-(benzofuran-6-ylsulfonyl)phthalazin-1(2H)-one] | 115 | 136 |
| Cc1cc(Cn2ncc3cc(S(=O)(=O)c4ccccc4)ccc3c2=O)no1 [Example 80, 2-((5-methylisoxazol-3-yl)methyl)-6-(phenylsulfonyl)phthalazin-1(2H)-one] | 93.2 | 799 |
| Cc1nc(S(=O)(=O)c2ccc3c(=O)n(Cc4ccn(C)n4)ncc3c2)cs1 [Example 214, 2-((1-methyl-1H-pyrazol-3-yl)methyl)-6-((2-methylthiazol-4-yl)sulfonyl)phthalazin-1(2H)-one] | 102 | 254 |
| O=c1c2cc(NCCO)c(S(=O)(=O)c3ccccc3)cc2cnn1Cc1cccnc1O [Example 246, 7-((2-hydroxyethyl)amino)-2-((2-hydroxypyridin-3-yl)methyl)-6-(phenylsulfonyl)phthalazin-1(2H)-one] | 96.7 | 261 |
| Cc1cc(Cn2ncc3cc(S(=O)(=O)c4cnn(C)c4)ncc3c2=O)n[nH]1 [Example 331] | 93.3 | 167 |
| CCn1nccc1Cn1ncc2cc(S(=O)(=O)c3ccccc3)ccc2c1=O [Example 83, 2-((1-ethyl-1H-pyrazol-5-yl)methyl)-6-(phenylsulfonyl)phthalazin-1(2H)-one] | 78.1 | 466 |

| SMILES | Emax [%] | EC50 [nM] |
| --- | --- | --- |
| Cn1cc(S(=O)(=O)c2ccc3c(=O)n(Cc4ccc5occc5n4)ncc3c2)cn1 [Example 330] | 108 | 20.6 |
| Cn1cc(S(=O)(=O)c2cnc3c(=O)n(Cc4cc[nH]n4)ncc3c2)cn1 [Example 267, 7-((1H-pyrazol-3-yl)methyl)-3-((1-methyl-1H-pyrazol-4-yl)sulfonyl)pyrido[2,3-d]pyridazin-8(7H)-one] | 83.5 | 481 |
| O=c1c2ccc(S(=O)(=O)c3cc[nH]n3)cc2cnn1Cc1cccc(C2CC2)n1 [Example 302] | 104 | 119 |
| Cc1ccc(S(=O)(=O)c2ccc3c(=O)n(Cc4cc[nH]n4)ncc3c2)cn1 [Example 290, 2-((1H-pyrazol-3-yl)methyl)-6-((6-methylpyridin-3-yl)sulfonyl)phthalazin-1(2H)-one] | 106 | 594 |
| Cn1cc(S(=O)(=O)c2ccc3c(=O)n(Cc4cc(F)[nH]n4)ncc3c2)cn1 [Example 322] | 104 | 231 |
| COc1ncccc1Cn1ncc2cc(S(=O)(=O)c3cn[nH]c3)ccc2c1=O [Example 284, 6-((1H-pyrazol-4-yl)sulfonyl)-2-((2-methoxypyridin-3-yl)methyl)phthalazin-1(2H)-one] | 72.7 | 452 |
| COc1ccc(Cn2ncc3cc(S(=O)(=O)c4ccn(C)n4)ccc3c2=O)cn1 [Example 158, 2-((6-methoxypyridin-3-yl)methyl)-6-((1-methyl-1H-pyrazol-3-yl)sulfonyl)phthalazin-1(2H)-one] | 85.4 | 186 |
| O=c1c2ccc(S(=O)(=O)c3cnn(C4COC4)c3)cc2cnn1Cc1ccc2c(n1)CCO2 [Example 334] | 96.8 | 23.3 |
| O=c1c2ccc(S(=O)(=O)c3cc[nH]n3)cc2cnn1Cc1ccc2c(n1)CCO2 [Example 299, 6-((1H-pyrazol-3-yl)sulfonyl)-2-((2,3-dihydrofuro[3,2-b]pyridin-5-yl)methyl)phthalazin-1(2H)-one] | 104 | 31.2 |
| N=S(=O)(c1cn[nH]c1)c1ccc2c(=O)n(Cc3ccc4c(n3)CCO4)ncc2c1 (centres unmarked) [Example 341] | 107 | 109 |
| Cc1cccc(Cn2ncc3cc(S(=O)(=O)c4c[nH]nc4Cl)ccc3c2=O)n1 [Example 318] | 95.2 | 185 |
| N=[S@@](=O)(c1cn[nH]c1)c1ccc2c(=O)n(Cc3ccc4c(n3)CCO4)ncc2c1 (stereo in doubt) [Example 364] | 114 | 35 |
| Cc1cc2nc(Cn3ncc4cc(S(=O)(=O)c5cn[nH]c5)ccc4c3=O)ccc2o1 [Example 345] | 113 | 11.4 |
| Cc1cccc(Cn2ncc3cc(S(=O)(=O)c4cnn(CCO)c4)ccc3c2=O)n1 [Example 269] | 103 | 129 |
| Cc1ccc(S(=O)(=O)c2ccc3c(=O)n(Cc4cccc(N)c4)ncc3c2)s1 [Example 146, 2-(3-aminobenzyl)-6-((5-methylthiophen-2-yl)sulfonyl)phthalazin-1(2H)-one] | 115 | 75.3 |
| Cn1ccc(Cn2ncc3cc(S(=O)(=O)c4ccccc4)ncc3c2=O)n1 [Example 248, 3-((1-methyl-1H-pyrazol-3-yl)methyl)-7-(phenylsulfonyl)pyrido[3,4-d]pyridazin-4(3H)-one] | 103 | 113 |
| COc1ccc(Cn2ncc3cc(S(=O)(=O)c4cnc(OC)cn4)ccc3c2=O)cn1 [Example 177, 6-(5-methoxypyrazin-2-ylsulfonyl)-2-((6-methoxypyridin-3-yl)methyl)phthalazin-1(2H)-one] | 79 | 209 |
| N=S(=O)(c1ccccc1)c1ccc2c(=O)n(Cc3cccc(N)c3)ncc2c1 (centres unmarked) [Example 120, 2-(3-aminobenzyl)-6-(phenylsulfonimidoyl)phthalazin-1(2H)-one] | 103 | 234 |
| COc1ccc(Cn2ncc3cc(S(=O)(=O)c4ccc5c(c4)OC(F)(F)O5)ccc3c2=O)cn1 [Example 156] | 88.7 | 91 |
| COc1ccc(Cn2ncc3cc(S(=O)(=O)c4cccc(Cl)c4)ccc3c2=O)cn1 [Example 154, 6-((3-chlorophenyl)sulfonyl)-2-((6-methoxypyridin-3-yl)methyl)phthalazin-1(2H)-one] | 93.7 | 141 |
| O=c1c2ccc(S(=O)(=O)c3csc(C4CC4)n3)cc2cnn1Cc1cc[nH]n1 [Example 346] | 96.7 | 42.3 |
